PMC3961306, “Comparison of the Cancer Gene Targeting and Biochemical Selectivities of All Targeted Kinase Inhibitors Approved for Clinical Use” (PLoS ONE, 2014)

Assays:
Experiment in all cases: Kinase profiling in a biochemical assay panel (mobility shift assays and ELISA), %-inhibition at 1 μM; selectivity entropy
[1] = target: T1, panel of more than 300 wild-type and mutant kinases (313 kinase panel) (Homo sapiens, UniProt O14920)
T1 sequence (O14920 1-756): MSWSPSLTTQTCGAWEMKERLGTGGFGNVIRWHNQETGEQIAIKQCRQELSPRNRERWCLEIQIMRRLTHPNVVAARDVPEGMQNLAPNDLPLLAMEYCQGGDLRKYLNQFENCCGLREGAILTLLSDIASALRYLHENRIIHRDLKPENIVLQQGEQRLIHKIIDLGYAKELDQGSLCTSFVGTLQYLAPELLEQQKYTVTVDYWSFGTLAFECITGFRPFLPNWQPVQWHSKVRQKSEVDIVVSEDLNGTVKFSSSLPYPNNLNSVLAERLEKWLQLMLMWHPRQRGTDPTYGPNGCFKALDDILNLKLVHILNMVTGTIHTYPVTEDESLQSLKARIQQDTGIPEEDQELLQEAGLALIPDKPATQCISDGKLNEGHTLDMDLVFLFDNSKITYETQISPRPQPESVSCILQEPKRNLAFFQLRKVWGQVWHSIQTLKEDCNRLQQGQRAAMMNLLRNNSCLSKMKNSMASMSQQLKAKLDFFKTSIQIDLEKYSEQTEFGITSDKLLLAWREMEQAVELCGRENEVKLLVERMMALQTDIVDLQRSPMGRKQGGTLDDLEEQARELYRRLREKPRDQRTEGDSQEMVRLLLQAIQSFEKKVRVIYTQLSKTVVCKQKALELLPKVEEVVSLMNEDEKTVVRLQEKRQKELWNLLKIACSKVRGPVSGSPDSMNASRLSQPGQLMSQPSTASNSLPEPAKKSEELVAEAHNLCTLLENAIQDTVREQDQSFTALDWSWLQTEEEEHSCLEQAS

[2] = target: panel of more than 300 wild-type and mutant kinases (313 kinase panel) (Homo sapiens, UniProt P07949, S891A)
[3] = target: panel of more than 300 wild-type and mutant kinases (313 kinase panel) (Homo sapiens, UniProt P08581, Y1235D)
[4] = target: panel of more than 300 wild-type and mutant kinases (313 kinase panel) (Homo sapiens, UniProt P10721, D816V)
[5] = target: panel of more than 300 wild-type and mutant kinases (313 kinase panel) (Homo sapiens, UniProt P35916)
[6] = target: panel of more than 300 wild-type and mutant kinases (313 kinase panel) (Homo sapiens, UniProt P43405)
[7] = target: panel of more than 300 wild-type and mutant kinases (313 kinase panel) (Homo sapiens, UniProt Q9BYP7); settings: kinase WNK3; compound at 1 μM
[8] = target: panel of more than 300 wild-type and mutant kinases (313 kinase panel) (Homo sapiens, UniProt Q9UK32)
[9] = target: panel of more than 300 wild-type and mutant kinases (313 kinase panel) (Homo sapiens, UniProt P54756)
[10] = target: panel of more than 300 wild-type and mutant kinases (313 kinase panel) (Homo sapiens, UniProt Q13557); settings: kinase CaMK2δ; 1 μM compound
[11] = target: panel of more than 300 wild-type and mutant kinases (313 kinase panel) (Homo sapiens, UniProt Q15418); settings: kinase RSK1; 1 μM
[12] = target: panel of more than 300 wild-type and mutant kinases (313 kinase panel) (Homo sapiens, UniProt Q96GD4)
[13] = target: panel of more than 300 wild-type and mutant kinases (313 kinase panel) (Homo sapiens, UniProt Q9UM73, L1196M)
[14] = kinase MET(Y1235D), compound at 1 μM
[15] = kinase KIT(D816V), compound at 1 μM
[16] = kinase ALK(L1196M), 1 μM compound

Row | SMILES | %-inhibition of IKKβ ([1]; kinase IKKβ, compound at 1 μM) [%] | %-inhibition of RET(S891A) ([2]; kinase RET(S891A), 1 μM) [%] | %-inhibition of MET(Y1235D) [3, 14] [%] | %-inhibition of KIT(D816V) [4, 15] [%] | %-inhibition of FLT4 ([5]; kinase FLT4, compound at 1 μM) [%] | %-inhibition of SYK ([6]; kinase SYK, 1 μM) [%] | %-inhibition of WNK3 [7] [%] | %-inhibition of RSK4 ([8]; kinase RSK4, 1 μM) [%] | %-inhibition of EPHA5 ([9]; kinase EPHA5, compound at 1 μM) [%] | %-inhibition, CaMK2δ [10] [%] | %-inhibition of RSK1 [11] [%] | %-inhibition, AurB ([12]; kinase AurB, 1 μM compound) [%] | %-inhibition, ALK(L1196M) [13, 16] [%] | other results
1 | COc1cc(Nc2c(C#N)cnc3cc(OCCCN4CCN(C)CC4)c(OC)cc23)c(Cl)cc1Cl [bosutinib] | -6 | 90 | 14 | 78 | 92 | 100 | 13 | 43 |  |  |  |  |  | 
2 | COc1cc2nccc(Oc3ccc(NC(=O)C4(C(=O)Nc5ccc(F)cc5)CC4)cc3)c2cc1OC [cabozantinib] | -2.35 |  |  | 23 | 100 | -3 | 20 | -3.65 | 99 | 0.942 | -7.61 | 89 | 4.25 | 
3 | C[C@@H](Oc1cc(-c2cnn(C3CCNCC3)c2)cnc1N)c1c(Cl)ccc(F)c1Cl [crizotinib] | -5 |  |  | 21 | 48 |  | -8 | -1.58 | 71 | 4 | -5 |  |  | 
4 | CC(C)(C)c1nc(-c2cccc(NS(=O)(=O)c3c(F)cccc3F)c2F)c(-c2ccnc(N)n2)s1 [dabrafenib] | 3.71 | 53 | 25 | 9 | 85 | 37 | 1.34 | 2.2 |  | -0.23 |  | 39 |  | 
5 | Cc1nc(Nc2ncc(C(=O)Nc3c(C)cccc3Cl)s2)cc(N2CCN(CCO)CC2)n1 [dasatinib] |  |  |  |  | 31 | 69 |  |  |  | -7.61 |  |  |  | 
6 | O=S(=O)(c1cccc2cnccc12)N1CCCNCC1 [fasudil] | 3.71 | -1.38 | -2.65 | 4.75 | 5.61 | 6 | 0.446 | 16 | -3.43 | 3.46 |  | 1 | -4 | 
7 | CS(=O)(=O)CCNCc1ccc(-c2ccc3ncnc(Nc4ccc(OCc5cccc(F)c5)c(Cl)c4)c3c2)o1 [lapatinib] | 0.904 |  | 2 |  | -2.21 | 0 |  |  | 6 | -33 | 2.59 |  | -3 | %-inhibition of RET(S891A) ([2]; 1 µM): 0.932%; %-inhibition of KIT(D816V) ([4]; 1 µM): -3%; %-inhibition, AurB ([12]; 1 µM): 9%; %-inhibition of RSK4 ([8]; 1 µM): 2.39%
8 | Cc1ccc(Nc2nccc(N(C)c3ccc4c(C)n(C)nc4c3)n2)cc1S(N)(=O)=O [pazopanib] | 0.627 | 100 |  | 87 |  | 40 | 8 | 10 | 32 | 1.54 | 16 | 45 | 25 | 
9 | Cc1ccc(C(=O)Nc2ccc(CN3CCN(C)CC3)c(C(F)(F)F)c2)cc1C#Cc1cnc2cccnn12 [ponatinib] | 46 | 102 |  |  | 101 | 10 | 0.73 | 13 |  |  | 32 | 46 |  | 
10 | N#CC[C@H](C1CCCC1)n1cc(-c2ncnc3[nH]ccc23)cn1 [ruxolitinib] |  |  |  | 36 |  |  | -8 | 3.16 |  | 81 | 1.49 | 24 |  | %-inhibition of IKKβ ([1]; 1 µM): 2.26%; %-inhibition of MET(Y1235D) ([3]; 1 µM): -0.936%; %-inhibition of FLT4 ([5]; 1 µM): 36%; %-inhibition of SYK ([6]; 1 µM): 20%; %-inhibition of EPHA5 ([9]; 1 µM): 18%; %-inhibition, ALK(L1196M) ([13]; 1 µM): 79%
11 | COc1cc2c(Nc3ccc(Br)cc3F)ncnc2cc1OCC1CCN(C)CC1 [vandetanib] | -4.53 |  |  |  | 104 | 27 | -7 | 5.43 | 89 | 10 |  | 23 |  | 
